Source: PubChem BioAssay (NCI)
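Five concentrations, 48 hours, 96-well plates. GI50 = concentration required for 50% inhibition of growth. At the TGI there is no net growth.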

How the values were obtained:
Assay in all cases: NCI anticancer screen, dose series, 48 h
UACC-62 melanoma = tested on: UACC-62 melanoma
SK-MEL-28 melanoma = tested on: SK-MEL-28 melanoma
SNB-19 CNS = tested on: SNB-19 CNS
SK-MEL-5 melanoma = tested on: SK-MEL-5 melanoma
UO-31 renal = tested on: UO-31 renal
TK-10 renal = tested on: TK-10 renal
MDA-MB-435 = tested on: MDA-MB-435
K-562 leukemia = tested on: K-562 leukemia
HT29 colon = tested on: HT29 colon
SK-OV-3 ovarian = tested on: SK-OV-3 ovarian

COc1ccc(C2C(C#N)=C(S)N(C3OC(COC(C)=O)C(OC(C)=O)C(OC(C)=O)C3OC(C)=O)C(c3ccccc3)=C2C(C)=O)cc1 (stereo not drawn) was tested, and the TGI (UACC-62 melanoma) was > 100 µM, the TGI (SK-MEL-28 melanoma) was > 100 µM and the TGI (SNB-19 CNS) was > 100 µM. For the same compound, the TGI (SK-MEL-5 melanoma) was > 100 µM, the TGI (UO-31 renal) was 99.5 µM and the TGI (TK-10 renal) was > 100 µM. The TGI (MDA-MB-435) was > 100 µM, the TGI (K-562 leukemia) was > 100 µM and the TGI (HT29 colon) was > 100 µM.
With Cc1sc2c(c1C)/C(=N\O)c1cccn1-2 the TGI (UACC-62 melanoma) was > 100 µM, the TGI (SK-MEL-28 melanoma) was > 100 µM and the TGI (SNB-19 CNS) was 63.2 µM. The TGI (SK-OV-3 ovarian) was > 100 µM, the TGI (SK-MEL-5 melanoma) was > 100 µM and the TGI (UO-31 renal) was > 100 µM. The TGI (TK-10 renal) was > 100 µM, the TGI (MDA-MB-435) was > 100 µM and the TGI (HT29 colon) was > 100 µM.
O=C(O)c1ccc(C2=Cc3cc(Cl)ccc3OC2)cc1 was tested, and the TGI (UACC-62 melanoma) was > 100 µM, the TGI (SK-MEL-28 melanoma) was > 100 µM and the TGI (SNB-19 CNS) was > 100 µM. For the same compound, the TGI (SK-OV-3 ovarian) was > 100 µM, the TGI (SK-MEL-5 melanoma) was > 100 µM and the TGI (UO-31 renal) was > 100 µM. The TGI (TK-10 renal) was > 100 µM, the TGI (K-562 leukemia) was > 100 µM and the TGI (HT29 colon) was > 100 µM.
For O=c1ccn(C2OC(CO)C(O)C2F)c(=O)n1Cc1ccccc1 (stereo not drawn), the TGI (UACC-62 melanoma) was > 100 µM, the TGI (SK-MEL-28 melanoma) was > 100 µM and the TGI (SNB-19 CNS) was > 100 µM. The TGI (SK-MEL-5 melanoma) was > 100 µM, the TGI (UO-31 renal) was > 100 µM and the TGI (TK-10 renal) was > 100 µM. For the same compound, the TGI (MDA-MB-435) was > 100 µM, the TGI (K-562 leukemia) was > 100 µM and the TGI (HT29 colon) was > 100 µM.
NNC(=S)NCCNC(=S)NN was tested, and the TGI (UACC-62 melanoma) was > 100 µM, the TGI (SK-MEL-28 melanoma) was > 100 µM and the TGI (SNB-19 CNS) was > 100 µM. The TGI (SK-OV-3 ovarian) was > 100 µM, the TGI (SK-MEL-5 melanoma) was > 100 µM and the TGI (UO-31 renal) was > 100 µM. For the same compound, the TGI (MDA-MB-435) was > 100 µM and the TGI (HT29 colon) was > 100 µM.
With CCN(CC)CCN1C(=O)c2c(c3c4ccccc4[nH]c3c3ccc4ccccc4c23)C1=O the GI50 (UACC-62 melanoma) was 1.57 µM, the TGI (UACC-62 melanoma) was 2.97 µM and the GI50 (SK-MEL-28 melanoma) was 1.74 µM. The TGI (SK-MEL-28 melanoma) was 3.18 µM, the GI50 (SNB-19 CNS) was 1.5 µM and the TGI (SNB-19 CNS) was 2.88 µM. It also gave a GI50 (SK-OV-3 ovarian) of 1.57 µM, a TGI (SK-OV-3 ovarian) of 3.01 µM and a GI50 (SK-MEL-5 melanoma) of 1.71 µM. The TGI (SK-MEL-5 melanoma) was 3.12 µM, the GI50 (UO-31 renal) was 1.36 µM and the TGI (UO-31 renal) was 2.66 µM. For the same compound, the GI50 (TK-10 renal) was 1.77 µM, the TGI (TK-10 renal) was 3.34 µM and the GI50 (MDA-MB-435) was 1.77 µM. For the same compound, the TGI (MDA-MB-435) was 3.17 µM, the GI50 (K-562 leukemia) was 1.82 µM and the TGI (K-562 leukemia) was 5.32 µM.
For Nc1nc(Cl)cc(NC2(CO)CCC2)n1, the TGI (UACC-62 melanoma) was > 100 µM, the TGI (SK-MEL-28 melanoma) was > 100 µM and the TGI (SK-MEL-5 melanoma) was > 100 µM. The TGI (UO-31 renal) was > 100 µM, the TGI (TK-10 renal) was > 100 µM and the TGI (MDA-MB-435) was > 100 µM. The TGI (K-562 leukemia) was > 100 µM and the TGI (HT29 colon) was > 100 µM.
C=C(NC(=O)C(=C)NC(=O)c1csc(C2=NC3c4csc(n4)C4NC(=O)c5csc(n5)C(C(C)(O)C(C)O)NC(=O)C5CSC(=N5)/C(=C/C)NC(=O)C(C(C)O)NC(=O)c5csc(n5)C3(CC2)NC(=O)C(C)NC(=O)C(=C)NC(=O)C(C)NC(=O)C(C(C)CC)NC2C=Cc3c(C(C)O)cc(nc3C2O)C(=O)OC4C)n1)C(N)=O (stereo not drawn) gave a TGI (UACC-62 melanoma) of 2.42 µM, a TGI (SK-MEL-28 melanoma) of 3.71 µM and a TGI (SNB-19 CNS) of 8.28 µM. For the same compound, the TGI (SK-OV-3 ovarian) was > 67.8 µM, the TGI (SK-MEL-5 melanoma) was 2.58 µM and the TGI (UO-31 renal) was > 100 µM. The TGI (TK-10 renal) was 31.3 µM and the TGI (HT29 colon) was 3.14 µM.
In the case of COc1cc(OC)c2c3c(OC)cc(OC)c4c(=O)c(O)c(C[C@@H](C)O)c(c5c(C[C@@H](C)O)c(O)c(=O)c1c25)c43, the TGI (SK-MEL-28 melanoma) is reported as 42 µM, the TGI (SNB-19 CNS) is reported as > 100 µM and the TGI (SK-OV-3 ovarian) is reported as > 100 µM. For the same compound, the TGI (SK-MEL-5 melanoma) was 28.4 µM, the TGI (UO-31 renal) was > 100 µM and the TGI (TK-10 renal) was > 100 µM. The TGI (MDA-MB-435) was 32.1 µM and the TGI (HT29 colon) was 73 µM.
NC1=NS(=O)(=O)Nc2nc(-c3ccccc3)[nH]c21 was tested, and the TGI (UACC-62 melanoma) was > 100 µM, the TGI (SK-MEL-28 melanoma) was > 100 µM and the TGI (SNB-19 CNS) was > 100 µM. For the same compound, the TGI (SK-OV-3 ovarian) was > 100 µM, the TGI (SK-MEL-5 melanoma) was > 100 µM and the TGI (UO-31 renal) was > 100 µM. The TGI (TK-10 renal) was > 100 µM, the TGI (K-562 leukemia) was > 100 µM and the TGI (HT29 colon) was > 100 µM.
With CC(=O)Oc1c(-c2ccccc2)sc2ccccc12 the TGI (UACC-62 melanoma) was 63.2 µM, the TGI (SK-MEL-28 melanoma) was 53.1 µM and the TGI (SNB-19 CNS) was > 100 µM. The TGI (SK-MEL-5 melanoma) was 44.5 µM, the TGI (UO-31 renal) was 36.6 µM and the TGI (TK-10 renal) was 65.1 µM. The TGI (MDA-MB-435) was 59 µM, the TGI (K-562 leukemia) was 36.2 µM and the TGI (HT29 colon) was 35.3 µM.
CC1(C)CCC(C)(C)C1C(=O)NC(O)C(=O)O (stereo not drawn) was tested, and the TGI (UACC-62 melanoma) was > 100 µM, the TGI (SK-MEL-28 melanoma) was > 100 µM and the TGI (SNB-19 CNS) was > 100 µM. The TGI (SK-OV-3 ovarian) was > 100 µM, the TGI (SK-MEL-5 melanoma) was > 100 µM and the TGI (UO-31 renal) was > 100 µM. The TGI (TK-10 renal) was > 100 µM, the TGI (MDA-MB-435) was > 100 µM and the TGI (K-562 leukemia) was > 100 µM.
With O=C(c1ccccc1)C1S(=O)(=O)OCCOS1(=O)=O the TGI (UACC-62 melanoma) was > 100 µM, the TGI (SK-MEL-28 melanoma) was > 100 µM and the TGI (SNB-19 CNS) was > 100 µM. For the same compound, the TGI (SK-OV-3 ovarian) was > 100 µM, the TGI (SK-MEL-5 melanoma) was > 100 µM and the TGI (UO-31 renal) was > 100 µM. The TGI (TK-10 renal) was > 100 µM, the TGI (K-562 leukemia) was > 100 µM and the TGI (HT29 colon) was > 100 µM.
With COc1ccc([C@@H]2CC(=O)N2)cc1 the TGI (UACC-62 melanoma) was > 100 µM, the TGI (SK-MEL-28 melanoma) was > 100 µM and the TGI (SNB-19 CNS) was > 100 µM. The TGI (SK-OV-3 ovarian) was > 100 µM, the TGI (SK-MEL-5 melanoma) was > 100 µM and the TGI (UO-31 renal) was > 100 µM. The TGI (TK-10 renal) was > 100 µM, the TGI (K-562 leukemia) was > 100 µM and the TGI (HT29 colon) was > 100 µM.
For O=C(NC(=O)c1cc(-c2ccccc2)n[nH]1)c1ccccc1, the TGI (UACC-62 melanoma) was > 100 µM, the TGI (SK-MEL-28 melanoma) was > 100 µM and the TGI (SK-OV-3 ovarian) was > 100 µM. The TGI (SK-MEL-5 melanoma) was > 100 µM, the TGI (UO-31 renal) was > 100 µM and the TGI (TK-10 renal) was > 100 µM. For the same compound, the TGI (MDA-MB-435) was > 100 µM, the TGI (K-562 leukemia) was > 100 µM and the TGI (HT29 colon) was > 100 µM.
In the case of CCOC(=O)C(Cc1c[nH]c2cc([N+](=O)[O-])ccc12)NS(=O)(=O)c1ccc2ccccc2c1 (stereo not drawn), the TGI (UACC-62 melanoma) is reported as 31.3 µM, the TGI (SK-MEL-28 melanoma) is reported as 32.1 µM and the TGI (SNB-19 CNS) is reported as > 100 µM. It also gave a TGI (SK-OV-3 ovarian) of 68.6 µM, a TGI (UO-31 renal) of 63.5 µM and a TGI (TK-10 renal) of 74.3 µM. The TGI (K-562 leukemia) was 39.1 µM and the TGI (HT29 colon) was 31 µM.
